Here are results for four compounds from paper PMC12278462, “Site-selective arylations of nature-inspired flavonoids or steroidal phenols via C—H or O—H activation” (Journal of Enzyme Inhibition and Medicinal Chemistry, 2025).

Where two headings read alike, the source gives them in different places.

One assay deals with C33A. Nature of the assay: MTT antiproliferative assay, C33A. The note with it: Homo sapiens, C-33-A, 72 h. The format is cell-based, human. Here is the method:
(§1) We evaluated the cytotoxic activity of the newly synthesised arylated compounds 13–17 by the MTT assay[37] on a panel of human adherent cancer cell lines. The panel included breast (MCF-7 and MDA MB-231) and cervical (HeLa, SiHa and C33A) cancer cell lines differing in receptorial or HPV status. Tumour selectivity was determined on the NIH/3T3 mouse fibroblast cell line.
(§2) Briefly, the panels of breast and cervical cancerous cell lines, differing by their receptorial and HPV status were used, precisely MCF-7 (ER, PR and HER2 positive) and MDA-MB-231 (TNBC) breast carcinoma and HeLa (HPV18+), SiHa (HPV16+), C33A (HPV-) cervical carcinoma cells. Non-cancerous NIH/3T3 mouse fibroblast cell line was used for selectivity study. MCF-7, MDA-MB-231, Hela and NIH/3T3 cell lines were purchased from ECACC (European Collection of Cell Cultures, Salisbury, UK), while SiHa and C33A from ATCC (American Tissue Culture Collection, LGC Standards GmbH, Wesel, Germany). Cells were maintained in Eagle's Minimum Essential Medium (EMEM, Capricorn Scientific GmbH, Ebsdorfergrund, Germany) supplemented with 10% heat-inactivated fetal bovine serum (FBS), 1% non-essential amino acids (NEAA), and 1% antibiotic-antimycotic mixture (penicillin–streptomycin). The cells were maintained at 37 °C in a humidified atmosphere containing 5% CO2.
(§3) For measurements cells were seeded for 96-well plates at a density of 5 000/well, except for C33A, which was seeded in 10 000cells for each well. After overnight standing cells were treated with 10 and 30 µM solutions for screening and increasing concentrations (0.1-30.0 µM) of the test compounds were used for concentration-response curves. After incubation for 72 hours under cell culturing condition 5 mg/ml MTT (3-(4,5-[…])-2,5-diphenyl-2H-tetrazolium bromide) solution was added for another 4 h. The precipitated formazan crystals were solubilized in DMSO and the absorbance was measured at 545 nm with a microplate reader (BMG Labtech, Ortenberg, Germany). Wells with untreated cells were utilized as control, and inhibition % were calculated by GraphPad Prism v 9.0 software (GraphPad Software, San Diego, CA, USA). If the growth-inhibition exceeded 70% at 30 µM concentration during the screening concentration-response curves were fitted and IC50 values were calculated by GraphPad Prism v 9.0. The experiments were performed with five parallel wells for each experimental condition and repeated at least twice.
Background: Formazan colour is commonly taken as a measure of viable cells.

For the next assay, the target named is T1, 17β-HSD1 (Homo sapiens, UniProt P14061).
T1 sequence (P14061 1-328): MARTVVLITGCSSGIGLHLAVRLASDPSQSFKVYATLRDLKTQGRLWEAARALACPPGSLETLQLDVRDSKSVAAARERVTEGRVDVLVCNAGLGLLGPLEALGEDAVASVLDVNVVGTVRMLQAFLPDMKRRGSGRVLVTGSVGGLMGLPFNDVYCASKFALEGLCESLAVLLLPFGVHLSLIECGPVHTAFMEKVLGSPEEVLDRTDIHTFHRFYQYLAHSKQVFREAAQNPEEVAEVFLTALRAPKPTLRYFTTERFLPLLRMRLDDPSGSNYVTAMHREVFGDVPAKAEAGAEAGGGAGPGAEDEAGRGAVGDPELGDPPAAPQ
Put plainly: 17β-HSD1 enzymatic assay (E1 to E2, LC-MS/MS). The settings on record: for inhibition at 10 µM / inhibition at 100 µM: read-out: 17β-HSD1 Inhibition (% ± SD). Type of assay: biochemical. Here is the method:
The bacterial homogenate of E. coli overexpressing HSD17B1 was previously prepared as described in references ^S2,S3, and stored in aliquots at -80 °C. Before conducting experiments, aliquots were quickly thawed and diluted twice with 100 mM sodium phosphate buffer (pH 6.5; #14457, #1411007, Kemika), then kept on ice. The enzymatic assay was performed as described in ^S3. Briefly, a 1 mL enzymatic reaction mixture was prepared in 2 mL microcentrifuge tubes with the following components: 10 µL of the test inhibitor dissolved in dimethyl sulfoxide (DMSO; #276855, Sigma Aldrich) or 10 µL of DMSO for control samples, 5 µL of 14 µM substrate estrone (E1; CAS 53-16-7; #E2300-000, Steraloids), 10 µL of 10 mM NADPH (#AE14, Carl Roth) prepared in 100 mM sodium phosphate buffer, and 965 µL of 100 mM sodium phosphate buffer (pH 6.5). The reaction mixture was mixed thoroughly before adding 10 µL of bacterial homogenate. Immediately after addition, the tubes were transferred to an Eppendorf thermoshaker (#5382000031, Eppendorf) and incubated at 37 °C for 10 minutes. To stop the reaction, 60 µL of 1.26 M ascorbic acid (#A92902, Sigma Aldrich) in methanol (#34966, Honeywell/Riedel-de Haen) /acetic acid (#1.00063, Merck) (99:1, v/v) was added. The samples were then immediately processed using solid-phase extraction (SPE). The assay was repeated in three independent experiments, with each experiment performed in technical duplicate.
The preparation of samples for liquid chromatography-tandem mass spectrometry (LC-MS/MS) involved SPE. Stock solutions of E1 and 17β-estradiol (E2; CAS: 50-28-2; #142406, Steraloids) were prepared gravimetrically and dissolved in methanol (#34966, Honeywell/Riedel-de Haen). A working calibrator solution containing both steroids was then prepared by mixing appropriate volumes of the stock solutions in methanol to achieve a final concentration of 1 µg/mL for each steroid. Eight-point calibration curves (excluding zero and blank) were prepared in 100 mM sodium phosphate buffer (pH 6.5). For each 1 mL reaction mixture or calibrator, 10 µL of 100 ng/mL internal standard solution containing [2,3,4-13C3]-17β-estradiol (#719552, Sigma Aldrich) was added. Samples were mixed thoroughly and incubated at room temperature for 15 minutes.
SPE was performed using Strata X 33 µm polymeric reversed-phase columns (30 mg/mL tubes; #8B-S100-TAK, Phenomenex). The procedure involved the following steps: column conditioning with 1 mL of methanol, column equilibration with 1 mL of H₂O (#1.15333, Supelco), sample loading (1 mL sample or calibrator), column washing with 1 mL of H₂O, column drying under high vacuum for 10 minutes, and finally elution with 1 mL of methanol directly into HPLC glass vials (#702713, Macherey-Nagel GmbH/Co). The eluted samples were stored at -20 °C until LC-MS/MS analysis.

The subject of assay [1] is NIH/3T3 mouse fibroblast cell line. Nature of the assay: MTT assay, tumour selectivity on non-cancerous fibroblasts. The format is cell-based. The settings on record: Mus musculus; for inhibition at 10 µM: NIH3T3, 10 µM; for inhibition at 10 µM / inhibition at 30 µM: 72 h; for inhibition at 30 µM: NIH3T3, 30 µM. Here is the method: as §1, §2, §3
In another assay the test system is MCF-7. Nature of the assay: MTT antiproliferative assay, MCF-7. The settings on record: Homo sapiens; for inhibition at 10 µM: MCF7, 10 µM; for inhibition at 10 µM / inhibition at 30 µM: 72 h; for inhibition at 30 µM: MCF7, 30 µM; for IC50: MCF7, 72 h, read-out: calculated IC50 MCF-7. Type of assay: cell-based, human. Here is the method: as §1, §2, §3
A further assay relates to HeLa. Nature of the assay: MTT antiproliferative assay, HeLa. The note with it: Homo sapiens, HeLa, 72 h; for IC50: read-out: calculated IC50 HeLa. Type of assay: cell-based, human. Here is the method:
as §1, §2, §3

A further assay deals with MDA-MB-231. Nature of the assay: MTT antiproliferative assay, MDA-MB-231. The format is cell-based, human. The settings on record: Homo sapiens; for inhibition at 10 µM: MDA-MB-231, 10 µM; for inhibition at 10 µM / inhibition at 30 µM: 72 h; for inhibition at 30 µM: MDA-MB-231, 30 µM. Here is the method: as §1, §2, §3
A further assay concerns SiHa. Nature of the assay: MTT antiproliferative assay, SiHa. Type of assay: cell-based, human. The settings on record: Homo sapiens, SiHa, 72 h. Here is the method: as §1, §2, §3
Assay [2] has as its system human adherent cancer cell lines (HeLa, SiHa, C33A, MCF-7 and MDA-MB-231). Put plainly: MTT assay, whole panel of cell lines. The format is cell-based. The settings on record: Homo sapiens; MTT, 72 h; range across cell lines; read-out: IC50 range over the investigated cell lines. Here is the method: as §1, §2, §3

The term inhibition denotes the drop in the measured response relative to a control, in per cent. As to `CN(C)C(=O)Oc1cc2c(c(-c3ccc(Br)cc3)c1)[C@H]1CC[C@@]3(C)C(=O)CC[C@H]3[C@@H]1CC2` [13b, 1-(4-bromophenyl)-3-(N,N-dimethylcarbamoyloxy)-13α-estra-1,3,5(10)-triene-17-one], the inhibition at 10 µM in the assay with C33A is below 10%; on 17β-HSD1, 14.5 ± 8.4%; in assay [1], below 10%; in the assay on MCF-7, 37.5%; with HeLa it was 53.6%; in the assay on MDA-MB-231, below 10%. Also, the inhibition at 10 µM with SiHa is 38.6%. The inhibition at 30 µM turned out to be 57.8% with C33A; 46.3% in assay [1]; 68.7% with MCF-7; 59.3% with HeLa; 13.9% in the assay with MDA-MB-231; 40% with SiHa. The inhibition at 100 µM on 17β-HSD1 worked out at 42.2 ± 18.6%.

For the compound `CN(C)C(=O)Oc1cc2c(c(-c3ccc(C(C)(C)C)cc3)c1)[C@H]1CC[C@@]3(C)C(=O)CC[C@H]3[C@@H]1CC2` [13c, 3-(N,N-dimethylcarbamoyloxy)-1-(4-tert-butylphenyl)-13α-estra-1,3,5(10)-triene-17-one], the inhibition at 10 µM with C33A was 41.1%; in assay [1], 47.3%; in the assay on MCF-7 it was 58.4%; with HeLa, 53.8%; in the assay on MDA-MB-231, 43.8%; with SiHa it was 54.8%. For the same compound, the inhibition at 30 µM in the assay on C33A worked out at 93.6%; in assay [1], 97.7%; with MCF-7, 102%; in the assay on HeLa, 98.6%; in the assay with MDA-MB-231, 92.9%; in the assay on SiHa, 101%. Further, the IC50 in the assay on C33A (read-out: calculated IC50 C33A) was 10.1 µM; in assay [2], 4.74 to 10.1 µM; in assay [1] (NIH3T3, 72 h, read-out: calculated IC50 NIH/3T3), 8.75 µM; in the assay with MCF-7, 5.7 µM; with HeLa, 7.9 µM; in the assay with MDA-MB-231 (MDA-MB-231, 72 h, read-out: calculated IC50 MDA-MB-231), 9.09 µM. Further, the IC50 with SiHa (read-out: calculated IC50 SiHa) was 4.74 µM. For the same compound, the “17β-HSD1 Inhibition (% ± SD)” value on 17β-HSD1 (10 µM test concentration) and at 17β-HSD1 (100 µM test concentration) was “No inhibition” throughout.

As to `C[C@@]12CC[C@@H]3c4c(cc(O)cc4-c4ccccc4)CC[C@H]3[C@@H]1CCC2=O` [14a, 3-hydroxy-1-phenyl-13α-estra-1,3,5(10)-triene-17-one], the inhibition at 10 µM with C33A is below 10%; on 17β-HSD1 (10 µM test concentration), 36.1 ± 10.2%; in assay [1] it was 13.5%; in the assay on MCF-7, 13.1%; in the assay with HeLa, 16.1%; in the assay on MDA-MB-231, below 10%. Also, in the assay with SiHa, the inhibition at 10 µM was below 10%. The inhibition at 30 µM with C33A is 12.7%; in assay [1] it was 22.5%; in the assay with MCF-7, 15.4%; in the assay with HeLa, 43%; in the assay on MDA-MB-231, below 10%; in the assay on SiHa, below 10%. Also, at 17β-HSD1 (100 µM test concentration), the inhibition at 100 µM came out at 73.3 ± 7.5%.

As for `C[C@@]12CC[C@@H]3c4c(cc(O)cc4-c4ccc(Br)cc4)CC[C@H]3[C@@H]1CCC2=O` [14b, 1-(4-bromophenyl)-3-hydroxy-13α-estra-1,3,5(10)-triene-17-one], the inhibition at 10 µM with C33A was 28.7%; on 17β-HSD1 (10 µM test concentration), 35.9 ± 8%; in assay [1], 16.1%; in the assay on MCF-7 it was 35.1%; in the assay with HeLa it was 26.5%; in the assay with MDA-MB-231, below 10%. In the assay with SiHa, the inhibition at 10 µM is below 10%. Further, the inhibition at 30 µM in the assay with C33A was 57%; in assay [1], 41.7%; in the assay with MCF-7 it was 81.5%; in the assay on HeLa it was 71.6%; in the assay with MDA-MB-231, 46.8%; in the assay on SiHa it was 59.7%. The inhibition at 100 µM at 17β-HSD1 (100 µM test concentration) came out at 76.6 ± 5.1%. Besides, the IC50 in the assay on MCF-7 is 13.5 µM; with HeLa it was 17.5 µM.
